Data on 32 molecules can be found in US6875743B1, “Cell adhesion inhibitors” (Biogen, Inc., priority 1996, dated 2005).

For one experiment, the target named is T1, VLA4 (Homo sapiens, UniProt P05556+P13612).
T1 construct: endogenous in cells; host or cells: Ramos cells
The experiment is described as follows: Inhibition of VLA4-dependent adhesion to BSA-CS1. The format is cell-based. The following applies: binding of BCECF-labelled Ramos cells to BSA-CS1 coated wells, 2 mM MnCl2; read-out: IC50.

Experiment [1] has as its target T2, α4β1 integrin, very late antigen-4 (VLA-4) (UniProt P13612 34-1032; P05556 21-798, limits assumed).
T2 construct: whole, on cells; also called CD49d/CD29
The experiment in a line: inhibition of Ramos cell adhesion to BSA-CS1. How it is done: Following labelling, the cells were washed twice in assay buffer (24 mM TRIS, 137 mM NaCl, 2.7 mM KCl, pH 7.4, containing 0.1% BSA and 2 mM glucose) to remove any cations originating from the culture medium. The cells were then resuspended in assay buffer to 4×10⁶ cells/mL and 2 mM MnCl_2 was added to upregulate VLA4 on the surface of the cells.
Immediately prior to running the assay, we removed the BSA blocking solution from the 96-well plates and washed the wells with 100 μL of assay buffer. We then added to each well 25 μL of test cell adhesion inhibitory compound at 2× the final concentration and 25 μL of the labelled Ramos cells. […] Each concentration of compound was tested in triplicate. The compound and cells are allowed to incubate for 30 minutes at room temperature.
Percent binding is calculated by the formula: […]

* marks the point of attachment. 2‑MPUPA = 4-(N′-(2-methylphenyl)urea)phenylacetyl, Cc1ccccc1NC(=O)Nc1ccc(CC(=O)*)cc1; Quinaldoyl = O=C(c1ccc2ccccc2n1)*; Boc = CC(C)(C)OC(=O)*; Bz = O=C(c1ccccc1)*; Ahx = NCCCCCC(=O)O

T1 sequence (P13612 34-1032): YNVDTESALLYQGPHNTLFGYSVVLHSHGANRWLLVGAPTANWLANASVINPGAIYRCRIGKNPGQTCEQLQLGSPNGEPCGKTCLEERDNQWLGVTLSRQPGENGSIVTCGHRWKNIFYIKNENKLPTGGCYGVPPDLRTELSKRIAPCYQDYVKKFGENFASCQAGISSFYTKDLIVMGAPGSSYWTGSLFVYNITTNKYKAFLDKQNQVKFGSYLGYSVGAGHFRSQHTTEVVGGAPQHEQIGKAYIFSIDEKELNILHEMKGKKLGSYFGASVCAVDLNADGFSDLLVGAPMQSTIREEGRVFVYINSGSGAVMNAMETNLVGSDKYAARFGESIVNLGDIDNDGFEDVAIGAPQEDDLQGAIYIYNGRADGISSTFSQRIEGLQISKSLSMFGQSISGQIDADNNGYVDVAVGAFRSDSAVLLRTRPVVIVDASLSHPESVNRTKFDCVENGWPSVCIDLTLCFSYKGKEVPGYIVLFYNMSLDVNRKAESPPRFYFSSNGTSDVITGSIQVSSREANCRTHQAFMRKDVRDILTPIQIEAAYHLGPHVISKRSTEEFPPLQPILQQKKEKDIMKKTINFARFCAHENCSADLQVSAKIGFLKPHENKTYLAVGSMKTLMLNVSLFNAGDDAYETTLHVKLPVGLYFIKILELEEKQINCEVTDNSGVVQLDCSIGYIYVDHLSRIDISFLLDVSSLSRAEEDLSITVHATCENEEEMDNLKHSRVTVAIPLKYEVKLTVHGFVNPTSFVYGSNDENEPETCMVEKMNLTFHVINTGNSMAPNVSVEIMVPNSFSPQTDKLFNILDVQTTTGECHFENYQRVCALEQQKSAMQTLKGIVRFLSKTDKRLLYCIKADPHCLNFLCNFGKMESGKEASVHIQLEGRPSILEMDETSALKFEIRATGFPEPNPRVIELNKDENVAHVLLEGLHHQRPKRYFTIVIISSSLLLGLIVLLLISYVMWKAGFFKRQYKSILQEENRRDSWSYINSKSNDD
T1 sequence (P05556 21-798): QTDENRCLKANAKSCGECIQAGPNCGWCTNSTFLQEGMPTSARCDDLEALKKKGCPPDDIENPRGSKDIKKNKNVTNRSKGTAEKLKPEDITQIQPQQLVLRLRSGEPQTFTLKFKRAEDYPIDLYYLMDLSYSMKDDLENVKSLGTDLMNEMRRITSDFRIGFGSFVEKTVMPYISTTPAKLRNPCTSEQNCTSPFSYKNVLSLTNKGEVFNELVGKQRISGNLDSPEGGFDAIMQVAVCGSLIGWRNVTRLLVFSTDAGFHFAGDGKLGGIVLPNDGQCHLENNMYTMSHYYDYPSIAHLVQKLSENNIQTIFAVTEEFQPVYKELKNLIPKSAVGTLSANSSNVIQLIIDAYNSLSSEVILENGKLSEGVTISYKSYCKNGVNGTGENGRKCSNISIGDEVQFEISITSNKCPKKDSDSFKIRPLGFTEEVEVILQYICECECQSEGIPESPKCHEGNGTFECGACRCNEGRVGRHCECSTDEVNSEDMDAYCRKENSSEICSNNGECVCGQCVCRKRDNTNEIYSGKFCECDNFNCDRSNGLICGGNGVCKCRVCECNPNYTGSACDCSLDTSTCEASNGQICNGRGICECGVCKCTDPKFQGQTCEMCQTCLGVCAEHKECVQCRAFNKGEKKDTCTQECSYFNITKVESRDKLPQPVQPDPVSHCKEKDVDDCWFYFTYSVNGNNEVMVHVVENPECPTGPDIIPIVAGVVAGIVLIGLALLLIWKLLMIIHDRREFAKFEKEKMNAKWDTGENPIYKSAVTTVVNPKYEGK
T2 sequence (P13612 34-1032 limits assumed, chain 1 of 2): as the sequence (P13612 34-1032) above
T2 sequence (P05556 21-798 limits assumed, chain 2 of 2): as the sequence (P05556 21-798) above

Regarding `CC(C)C[C@H](NC(=O)CC1CC2CCC1C2)C(=O)N[C@@H](CC(=O)O)C(=O)N[C@H](C(=O)O)C(C)C` (some centres unmarked) [Compound 390], on VLA4, the IC50 was more than 10 µM.

Regarding `CC(C)C[C@H](NC(=O)c1c2c(nc3ccccc13)CCCC2)C(=O)N[C@@H](CC(=O)O)C(=O)N[C@H](C(=O)O)C(C)C` [Compound 391], the IC50 on VLA4 is more than 10 µM. Still for that read-out and setting: the figure for `COc1ccc2cc(C(C)C(=O)N[C@@H](CC(C)C)C(=O)N[C@@H](CC(=O)O)C(=O)N[C@H](C(=O)O)C(C)C)ccc2c1` (some centres unmarked) [Compound 394] is more than 10 µM; for `CC(C)C[C@H](NC(=O)COc1ccc2ccccc2c1)C(=O)N[C@@H](CC(=O)O)C(=O)N[C@H](C(=O)O)C(C)C` [Compound 395] it is more than 10 µM; for `CC(C)C[C@H](NC(=O)C1C2CC3CC(C2)CC1C3)C(=O)N[C@@H](CC(=O)O)C(=O)N[C@H](C(=O)O)C(C)C` (some centres unmarked) [Compound 398] it is more than 10 µM. With `CCn1cc(C(=O)N[C@@H](CC(C)C)C(=O)N[C@@H](CC(=O)O)C(=O)N[C@H](C(=O)O)C(C)C)c(=O)c2ccc(C)nc21` [Compound 403], the IC50 at VLA4 was more than 10 µM. As to `CC(C)C[C@H](NC(=O)Cc1cccs1)C(=O)N[C@@H](CC(=O)O)C(=O)N[C@H](C(=O)O)C(C)C` [Compound 404], the IC50 at VLA4 is more than 10 µM.

On to `CC(C)C[C@H](NC(=O)c1ccc(C(C)C)cc1)C(=O)N[C@@H](CC(=O)O)C(=O)N[C@H](C(=O)O)C(C)C` [Compound 405], for which the IC50 at VLA4 is more than 10 µM.

On to `CC(C)C[C@H](NC(=O)c1ccc2c(c1)OCO2)C(=O)N[C@@H](CC(=O)O)C(=O)N[C@H](C(=O)O)C(C)C` [Compound 406], for which the IC50 at VLA4 is more than 10 µM.

Regarding `CC(C)C[C@H](NC(=O)c1ccc(-c2ccccn2)s1)C(=O)N[C@@H](CC(=O)O)C(=O)N[C@H](C(=O)O)C(C)C` [Compound 407], the IC50 on VLA4 is more than 10 µM. For `CC(C)C[C@H](NC(=O)N1c2ccccc2CCc2ccccc21)C(=O)N[C@@H](CC(=O)O)C(=O)N[C@H](C(=O)O)C(C)C` [Compound 408], the IC50 on VLA4 was more than 10 µM. Still for that read-out and setting: under `CNC(=O)[C@@H](CC(C)C)NC(=O)[C@H](CC(=O)O)NC(=O)[C@@H]1CCCN1C(=O)Cc1ccc(NC(=O)Nc2ccccc2C)cc1` [Compound 409] stands 0.05 to 10 µM.

Take `COC(=O)[C@@H](CC(C)C)NC(=O)[C@H](CC(=O)O)NC(=O)[C@@H]1CCCN1C(=O)Cc1ccc(NC(=O)Nc2ccccc2C)cc1` [Compound 410]: the IC50 on VLA4 lay in the range of 0.05 to 10 µM.

Take `Cc1ccccc1NC(=O)Nc1ccc(CC(=O)N2CCC[C@H]2C(=O)N[C@@H](CC(=O)O)C(=O)N[C@H](CC(C)C)C(=O)O)cc1` [Compound 411]: the IC50 at VLA4 is less than 0.05 µM. Still for that read-out and setting: under `Cc1ccccc1NC(=O)Nc1ccc(CC(=O)N2CCC2C(=O)N[C@@H](CC(=O)O)C(=O)N[C@H](CC(C)C)C(=O)O)cc1` (some centres unmarked) [Compound 412] stands 0.05 to 10 µM.

With `CNC(=O)[C@H](CCC(=O)O)NC(=O)[C@@H]1CCCN1C(=O)Cc1ccc(NC(=O)Nc2ccccc2C)cc1` [Compound 413], the IC50 at VLA4 was in the range of 0.05 to 10 µM. Still for that read-out and setting: under `CNC(=O)[C@@H](CC(C)C)NC(=O)[C@H](CCC(=O)O)NC(=O)[C@@H]1CCCN1C(=O)Cc1ccc(NC(=O)Nc2ccccc2C)cc1` [Compound 414] stands 0.05 to 10 µM; under `Cc1ccccc1NC(=O)Nc1ccc(CC(=O)N2CCC[C@H]2C(=O)N[C@@H](CCC(=O)O)C(=O)N[C@H](CC(C)C)C(=O)O)cc1` [Compound 415], 0.05 to 10 µM; under `Cc1ccccc1NC(=O)Nc1ccc(CC(=O)N2CCC[C@H]2C(=O)N[C@@H](CCC(=O)O)C(=O)O)cc1` [Compound 416], 0.05 to 10 µM.

B1: Compound 341 (peptide)
peptide: {2‑MPUPA}-LPVD-OH
SMILES: Cc1ccccc1NC(=O)Nc1ccc(CC(=O)N[C@@H](CC(C)C)C(=O)N2CCC[C@H]2C(=O)N[C@H](C(=O)N[C@@H](CC(=O)O)C(=O)O)C(C)C)cc1
In experiment [1], B1 yielded an IC50 of more than 10 µM. Same read-out and setting: the figure for {2‑MPUPA}-LDVPS-OH [Compound 337] is less than 0.05 µM.

B2: Compound 153 (peptide)
peptide: Bz-FLDV-OH
SMILES: CC(C)C[C@H](NC(=O)[C@H](Cc1ccccc1)NC(=O)c1ccccc1)C(=O)N[C@@H](CC(=O)O)C(=O)N[C@H](C(=O)O)C(C)C
In experiment [1], B2 registered an IC50 of more than 10 µM.

B3: Compound 339 (peptide)
peptide: {2‑MPUPA}-VLPD-OH
SMILES: Cc1ccccc1NC(=O)Nc1ccc(CC(=O)N[C@H](C(=O)N[C@@H](CC(C)C)C(=O)N2CCC[C@H]2C(=O)N[C@@H](CC(=O)O)C(=O)O)C(C)C)cc1
B3 showed an IC50 in experiment [1] of more than 10 µM.

B4: Compound 338 (peptide)
peptide: {2‑MPUPA}-LDVPST-OH
SMILES: Cc1ccccc1NC(=O)Nc1ccc(CC(=O)N[C@@H](CC(C)C)C(=O)N[C@@H](CC(=O)O)C(=O)N[C@H](C(=O)N2CCC[C@H]2C(=O)N[C@@H](CO)C(=O)N[C@H](C(=O)O)[C@@H](C)O)C(C)C)cc1
B4 returned an IC50 in experiment [1] of less than 0.05 µM. In turn, Ac-FLDV-OH [Compound 152] registered an IC50 in experiment [1] of more than 10 µM. For the molecule {3‑methoxy‑4‑(N'-phenylurea)phenylacetyl}-MDVP-OH [Compound 2], in experiment [1], the IC50 is less than 0.05 µM.

B5: Compound 186 (peptide)
peptide: Quinaldoyl-LDVM-OH
SMILES: CSCC[C@H](NC(=O)[C@@H](NC(=O)[C@H](CC(=O)O)NC(=O)[C@H](CC(C)C)NC(=O)c1ccc2ccccc2n1)C(C)C)C(=O)O
B5 had an IC50 in experiment [1] of more than 10 µM. On the same count and under the same terms, the figure for {4‑(N'-2-hydroxyphenylurea)phenylacetyl}-MDVP-OH [Compound 146] is less than 0.05 µM.

B6: Compound 202 (peptide)
peptide: {2‑MPUPA}-K(Ahx)DVP-OH
SMILES: Cc1ccccc1NC(=O)Nc1ccc(CC(=O)N[C@@H](CCCCNC(=O)CCCCCN)C(=O)N[C@@H](CC(=O)O)C(=O)N[C@H](C(=O)N2CCC[C@H]2C(=O)O)C(C)C)cc1
In experiment [1], B6 yielded an IC50 of 0.05 to 10 µM.

B7: Compound 167 (peptide)
peptide: Boc-LDVM-OMe
SMILES: COC(=O)[C@H](CCSC)NC(=O)[C@@H](NC(=O)[C@H](CC(=O)O)NC(=O)[C@H](CC(C)C)NC(=O)OC(C)(C)C)C(C)C
For the molecule B7, in experiment [1], the IC50 was more than 10 µM.

B8: Compound 168 (peptide)
peptide: Quinaldoyl-LDVM-OMe
SMILES: COC(=O)[C@H](CCSC)NC(=O)[C@@H](NC(=O)[C@H](CC(=O)O)NC(=O)[C@H](CC(C)C)NC(=O)c1ccc2ccccc2n1)C(C)C
In experiment [1], B8 had a half-inhibitory concentration (IC50) of 0.05 to 10 µM.

B9: Compound 315 (peptide)
peptide: {2‑MPUPA}-MDVP-OH
SMILES: CSCC[C@H](NC(=O)Cc1ccc(NC(=O)Nc2ccccc2C)cc1)C(=O)N[C@@H](CC(=O)O)C(=O)N[C@H](C(=O)N1CCC[C@H]1C(=O)O)C(C)C
On to B9, for which the IC50 in experiment [1] was less than 0.05 µM.

As usually defined, the IC50 is the concentration that gives 50% inhibition.
